These results are taken from ChEMBL document CHEMBL1781982, “Evaluation of antioxidant and antimicrobial activities of Bergenin and its derivatives obtained by chemoenzymatic synthesis” (Eur J Med Chem, 2011).

Active and inactive are the calls of the source. No cut-off for these calls is given here.

The subject of data set [1] is Staphylococcus aureus. The experiment in a line: Antibacterial activity against Staphylococcus aureus MTCC 2940 at 30 ug/disc after 24 hrs. Type of data set: functional. The following applies: MTCC 2940, 24 h, read-out: DIZ.
For data set [2], the system named is Bacillus subtilis. The experiment in a line: Antibacterial activity against Bacillus subtilis MTCC 441 at 30 ug/disc after 24 hrs. It counts as functional. The note with it: MTCC 441, 24 h, read-out: DIZ.
For data set [3], the system named is Escherichia coli. The experiment in a line: Antibacterial activity against Escherichia coli MTCC 739 at 30 ug/disc after 24 hrs. Type of data set: functional. The following applies: MTCC 739, 24 h, read-out: DIZ.
Data set [4] concerns Klebsiella pneumoniae. The experiment in a line: Antibacterial activity against Klebsiella pneumoniae MTCC 139 at 30 ug/disc after 24 hrs. The following applies: MTCC 139, 24 h, read-out: DIZ. It counts as functional.
Data set [5] deals with Radical scavenging activity. The experiment in a line: Antioxidant activity assessed as DPPH free radical scavenging activity at 200 to 1000 uM after 5 mins. It counts as functional. For orientation: DPPH is a stable violet radical that fades when it is reduced.
The target of data set [6] is Xanthine dehydrogenase/oxidase (Homo sapiens, UniProt P47989). In words: Inhibition of xanthine oxidase assessed as reduction of uric acid production from xanthine at 10 to 50 uM preincubated for 15 mins measured after 30 mins by spectrophotometry. The note with it: 0.5 h.
The subject of data set [7] is Staphylococcus aureus. In words: Antibacterial activity against Staphylococcus aureus MTCC 2940 at 2000 ug/ml after 24 hrs by agar-well diffusion method. Type of data set: functional. The following applies: MTCC 2940, 24 h, read-out: DIZ. For orientation: In agar diffusion tests the substance spreads into inoculated agar from a disc or well.
For data set [8], the system named is Bacillus subtilis. The experiment in a line: Antibacterial activity against Bacillus subtilis MTCC 441 at 2000 ug/ml after 24 hrs by agar-well diffusion method. Type of data set: functional. The following applies: MTCC 441, 24 h, read-out: DIZ.
In data set [9] the test system is Escherichia coli. In words: Antibacterial activity against Escherichia coli MTCC 739 at 2000 ug/ml after 24 hrs by agar-well diffusion method. The following applies: MTCC 739, 24 h, read-out: DIZ. Type of data set: functional.
Data set [10] relates to Klebsiella pneumoniae. The experiment in a line: Antibacterial activity against Klebsiella pneumoniae MTCC 139 at 2000 ug/ml after 24 hrs by agar-well diffusion method. It counts as functional. The note with it: MTCC 139, 24 h, read-out: DIZ.

Sequence of Xanthine dehydrogenase/oxidase (P47989 whole entry, the tested form may be a part): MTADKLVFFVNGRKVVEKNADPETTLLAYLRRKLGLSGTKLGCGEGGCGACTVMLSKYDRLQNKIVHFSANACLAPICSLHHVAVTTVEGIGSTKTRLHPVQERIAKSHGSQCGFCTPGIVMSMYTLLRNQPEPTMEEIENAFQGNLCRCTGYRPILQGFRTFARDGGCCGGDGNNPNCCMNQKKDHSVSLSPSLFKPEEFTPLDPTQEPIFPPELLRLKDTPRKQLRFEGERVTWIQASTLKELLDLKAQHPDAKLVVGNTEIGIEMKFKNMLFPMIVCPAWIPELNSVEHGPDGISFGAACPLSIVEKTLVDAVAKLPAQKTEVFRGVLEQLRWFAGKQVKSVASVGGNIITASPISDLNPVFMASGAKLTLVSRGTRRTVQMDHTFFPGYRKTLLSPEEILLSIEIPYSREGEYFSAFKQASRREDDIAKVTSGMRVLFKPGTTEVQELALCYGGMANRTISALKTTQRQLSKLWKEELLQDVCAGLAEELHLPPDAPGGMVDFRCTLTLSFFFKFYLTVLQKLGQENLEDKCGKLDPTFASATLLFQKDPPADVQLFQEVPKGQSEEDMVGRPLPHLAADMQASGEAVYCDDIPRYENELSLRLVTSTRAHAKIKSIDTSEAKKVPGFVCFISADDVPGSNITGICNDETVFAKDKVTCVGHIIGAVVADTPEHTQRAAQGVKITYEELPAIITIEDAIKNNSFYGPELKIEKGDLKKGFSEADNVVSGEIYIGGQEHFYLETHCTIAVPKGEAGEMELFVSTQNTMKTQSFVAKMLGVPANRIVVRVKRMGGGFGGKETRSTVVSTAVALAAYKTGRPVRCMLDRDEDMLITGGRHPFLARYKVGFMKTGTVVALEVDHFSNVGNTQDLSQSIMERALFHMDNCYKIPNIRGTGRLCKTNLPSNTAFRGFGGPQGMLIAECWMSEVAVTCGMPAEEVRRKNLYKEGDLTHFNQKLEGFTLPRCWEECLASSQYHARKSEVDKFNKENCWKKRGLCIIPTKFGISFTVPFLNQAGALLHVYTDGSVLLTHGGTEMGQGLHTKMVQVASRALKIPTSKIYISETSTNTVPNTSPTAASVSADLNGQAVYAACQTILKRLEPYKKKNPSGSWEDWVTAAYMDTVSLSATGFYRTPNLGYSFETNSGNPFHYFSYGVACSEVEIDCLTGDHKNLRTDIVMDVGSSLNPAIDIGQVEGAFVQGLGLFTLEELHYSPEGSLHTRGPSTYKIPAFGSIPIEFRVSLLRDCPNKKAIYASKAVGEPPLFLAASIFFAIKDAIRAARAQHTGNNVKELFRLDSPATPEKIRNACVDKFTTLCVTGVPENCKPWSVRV

As to `NC[C@H]1O[C@H](O[C@H]2[C@H](O)[C@@H](O[C@H]3O[C@H](CO)[C@@H](O)[C@H](N)[C@H]3O)[C@H](N)C[C@@H]2N)[C@H](O)[C@@H](O)[C@@H]1O` [KANAMYCIN], the zone of inhibition at 30 µg/disc in data set [1] worked out at 25.1 mm; in data set [2] it was 23.2 mm; in [3], 18 mm; in data set [4], 19.5 mm.

For the compound `CCCCCCCCCC(=O)Oc1cc2c(c(OC(C)=O)c1OC)[C@@H]1O[C@H](COC(C)=O)[C@@H](OC(C)=O)[C@H](OC(C)=O)[C@H]1OC2=O`, the outcome in [5] was Active. Moreover, the “inhibition (INH)” value in [6] was “Not Active”. Besides, the zone of inhibition at 2000 µg/mL in [7] worked out at 3.2 mm; in data set [8], 3.9 mm; in data set [9] it was 6.2 mm; in data set [10] it was 4.2 mm.

For `COc1c(O)cc2c(c1O)[C@@H]1O[C@H](CO)[C@@H](O)[C@H](O)[C@H]1OC2=O` [BERGENIN], the outcome in data set [5] was Active. Besides, in [6], the “inhibition (INH)” value is recorded as “Not Active”. Further, the zone of inhibition at 2000 µg/mL in data set [7] turned out to be 2.1 mm; in data set [8], 1.3 mm; in data set [9] it was 3.3 mm; in data set [10] it was 2.5 mm.

`CCCCCCCCCCCCCC(=O)Oc1cc2c(c(OC(C)=O)c1OC)[C@@H]1O[C@H](COC(C)=O)[C@@H](OC(C)=O)[C@H](OC(C)=O)[C@H]1OC2=O`: the result in data set [5] was Active. In addition, in data set [6], the “inhibition (INH)” value is listed as “Not Active”. For the same compound, the zone of inhibition at 2000 µg/mL in data set [7] is 2.4 mm; in [8], 2.2 mm; in data set [9], 5.4 mm; in data set [10], 3.1 mm.

As for `COc1c(OC(C)=O)cc2c(c1OC(C)=O)[C@@H]1O[C@H](COC(C)=O)[C@@H](OC(C)=O)[C@H](OC(C)=O)[C@H]1OC2=O` [BERGENIN PENTAACETATE], the result in [5] was Active. In addition, the zone of inhibition at 2000 µg/mL in data set [7] is 8.3 mm; in [8] it was 5.2 mm; in data set [9], 16.2 mm; in [10] it was 5.1 mm.

Regarding `COc1c(O)cc2c(c1OC(C)=O)[C@@H]1O[C@H](COC(C)=O)[C@@H](OC(C)=O)[C@H](OC(C)=O)[C@H]1OC2=O`, the result in data set [5] was Active. The zone of inhibition at 2000 µg/mL turned out to be 3.2 mm in data set [7], 4.3 mm in [8], 14.1 mm in data set [9] and 3.3 mm in data set [10].

Take `O=c1c(O)c(-c2ccc(O)c(O)c2)oc2cc(O)cc(O)c12` [QUERCETIN]: in data set [6], the “inhibition (INH)” value is on record as “Active”.

With `COc1c(OC(=O)c2ccccc2)cc2c(c1OC(C)=O)[C@@H]1O[C@H](COC(C)=O)[C@@H](OC(C)=O)[C@H](OC(C)=O)[C@H]1OC2=O`, in data set [5], the result was Active. Further, the “inhibition (INH)” value in data set [6] is reported as “Not Active”. Moreover, the zone of inhibition at 2000 µg/mL in data set [7] was determined as 5.5 mm; in data set [8], 4.3 mm; in data set [9] it was 9.3 mm; in data set [10] it was 6.3 mm.

On to `CCCCCC(=O)Oc1cc2c(c(OC(C)=O)c1OC)[C@@H]1O[C@H](COC(C)=O)[C@@H](OC(C)=O)[C@H](OC(C)=O)[C@H]1OC2=O`, for which, in [5], the result was Active. In data set [6], the “inhibition (INH)” value was “Not Active”. Besides, the zone of inhibition at 2000 µg/mL in data set [7] was determined as 6.4 mm; in data set [8], 7.4 mm; in data set [9], 21.4 mm; in data set [10], 5.4 mm.
